Consider five molecules from patent US9656996B2, “Fused heterocyclic compound, preparation method therefor, pharmaceutical composition, and uses thereof” (SHANGHAI YINGLI PHARMACEUTICAL CO., LTD., priority 2013, dated 2017).

Molecules are shown by their SMILES.

Test [1] has as its system Raji cell TNF-α generation. Nature of the test: Inhibition of human Raji cell TNF-α generation induced by human IgM (ELISA). Type of test: cell-based. The following applies: Raji cells, IgM stimulation, 24 hours. How it is done: 1. Raji cell line (human Burkitt's lymphoma origin) (ATCC, Cat#CCL-86) was used.
2. Raji cells were applied onto the 96-well plate with 1×10^5/well.
3. The compounds to be screened were diluted to the corresponding test concentration, and added to the cell culture system 30 minutes prior to IgM stimulation.
4. 10 µg/ml IgM monoclonal antibody (JACKSON, Cat#109-006-129) was added to the cell culture system in order to stimulate the cells generating TNF-α.
5. After 24 hours, the amount of TNF-α produced by the cell line was determined by ELISA.
6. The inhibition rates at each concentration of the compound were calculated and plotted to calculate 50% inhibition rate (IC50), and the specific results were shown in table 3.
Background: In an ELISA, binding on a coated surface is turned into a signal by an enzyme label.

For test [2], the target named is PI3Kγ (Homo sapiens (Human), UniProt P48736). As to the kind of experiment: PI3Kγ enzymatic inhibitory activity IC50 assay. Type of test: biochemical. To be noted: selectivity ratio. Here is the method: (§1) 1. Buffer preparation: 50 mM HEPES, pH 7.5, 3 mM MgCl2, 1 mM EGTA, 100 mM NaCl, 0.03% CHAPS.
(§2) 2. The compound was formulated in 100% DMSO in a concentration gradient, and deposited to a 384-well plate with a final DMSO concentration of 1%.
(§3) 3. PI3Kα, PI3Kδ, PI3Kβ and PI3Kγ enzymes (purchased from EMD Millipore) were diluted to the optimal concentration with the following buffer: 50 mM HEPES, pH 7.5, 3 mM MgCl2, 1 mM EGTA, 100 mM NaCl, 0.03% CHAPS, 2 mM DTT, transferred to a 384-well plate and incubated with the compound for a certain time.
(§4) 4. The substrate was diluted to an optimal concentration with the following buffer: 50 mM HEPES, pH 7.5, 3 mM MgCl2, 1 mM EGTA, 100 mM NaCl, 0.03% CHAPS, 2 mM DTT, 50 μM PIP2, 25 μM ATP and added to the 384-well plate to initiate the reaction. PI3Kα, PI3Kβ and PI3Kγ were allowed to react for 1 h at room temperature, and PI3Kδ reacted for 2 hours at room temperature. Another 10 μL ADP-Glo Detection Reagent also needed to be added for PI3Kβ and PI3Kγ, and then equilibrated at room temperature for 30 minutes.
(§5) 5. Luminescence was read by using Flexstation, and the inhibition rate was calculated as the average value of two tests.

For test [3], the target named is PI3Kδ (Homo sapiens (Human), UniProt O00329). As to the kind of experiment: PI3Kδ enzymatic inhibitory activity IC50 assay. To be noted: luminescence readout, 25 μM ATP, 50 μM PIP2, 2 hours at room temperature. Format: biochemical. How it is done:
as §1, §2, §3, §4, §5

For test [4], the target named is PI3Kβ (Homo sapiens (Human), UniProt P42338). As to the kind of experiment: PI3Kβ enzymatic inhibitory activity IC50 assay. To be noted: selectivity ratio. Type of test: biochemical. How it is done:
as §1, §2, §3, §4, §5

Test [5] concerns the target PI3Kα (Homo sapiens (Human), UniProt P42336). As to the kind of experiment: PI3Kα enzymatic inhibitory activity IC50 assay. Format: biochemical. To be noted: selectivity ratio. Here is the method:
as §1, §2, §3, §4, §5

Sequence of PI3Kγ (P48736 whole entry, species assumed): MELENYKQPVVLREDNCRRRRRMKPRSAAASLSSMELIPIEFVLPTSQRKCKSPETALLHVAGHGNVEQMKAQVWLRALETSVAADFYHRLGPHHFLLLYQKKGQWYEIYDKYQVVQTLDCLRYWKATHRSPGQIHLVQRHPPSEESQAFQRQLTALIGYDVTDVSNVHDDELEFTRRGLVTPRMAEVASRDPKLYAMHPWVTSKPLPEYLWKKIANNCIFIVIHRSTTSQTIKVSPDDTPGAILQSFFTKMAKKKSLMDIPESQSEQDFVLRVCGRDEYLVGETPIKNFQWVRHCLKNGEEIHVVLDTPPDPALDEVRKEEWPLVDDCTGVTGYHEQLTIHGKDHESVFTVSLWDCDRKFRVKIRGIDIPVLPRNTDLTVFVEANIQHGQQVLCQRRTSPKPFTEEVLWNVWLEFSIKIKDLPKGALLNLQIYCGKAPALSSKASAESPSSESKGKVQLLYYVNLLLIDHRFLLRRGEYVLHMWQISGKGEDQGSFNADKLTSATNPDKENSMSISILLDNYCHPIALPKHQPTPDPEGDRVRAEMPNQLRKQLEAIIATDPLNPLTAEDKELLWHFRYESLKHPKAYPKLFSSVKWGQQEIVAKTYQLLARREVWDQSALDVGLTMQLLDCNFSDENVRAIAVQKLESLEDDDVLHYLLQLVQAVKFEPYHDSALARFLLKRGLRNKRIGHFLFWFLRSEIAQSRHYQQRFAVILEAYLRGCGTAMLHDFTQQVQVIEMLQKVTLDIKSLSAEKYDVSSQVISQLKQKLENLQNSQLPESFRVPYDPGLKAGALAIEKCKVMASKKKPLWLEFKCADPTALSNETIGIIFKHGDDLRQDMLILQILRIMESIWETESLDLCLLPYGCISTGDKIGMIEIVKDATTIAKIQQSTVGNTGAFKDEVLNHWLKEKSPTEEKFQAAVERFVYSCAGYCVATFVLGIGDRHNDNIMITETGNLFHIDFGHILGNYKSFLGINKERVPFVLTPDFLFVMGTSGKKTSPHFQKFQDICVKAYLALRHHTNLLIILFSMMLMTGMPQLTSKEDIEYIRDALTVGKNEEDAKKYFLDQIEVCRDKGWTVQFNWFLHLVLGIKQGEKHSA
Sequence of PI3Kδ (O00329 whole entry, species assumed): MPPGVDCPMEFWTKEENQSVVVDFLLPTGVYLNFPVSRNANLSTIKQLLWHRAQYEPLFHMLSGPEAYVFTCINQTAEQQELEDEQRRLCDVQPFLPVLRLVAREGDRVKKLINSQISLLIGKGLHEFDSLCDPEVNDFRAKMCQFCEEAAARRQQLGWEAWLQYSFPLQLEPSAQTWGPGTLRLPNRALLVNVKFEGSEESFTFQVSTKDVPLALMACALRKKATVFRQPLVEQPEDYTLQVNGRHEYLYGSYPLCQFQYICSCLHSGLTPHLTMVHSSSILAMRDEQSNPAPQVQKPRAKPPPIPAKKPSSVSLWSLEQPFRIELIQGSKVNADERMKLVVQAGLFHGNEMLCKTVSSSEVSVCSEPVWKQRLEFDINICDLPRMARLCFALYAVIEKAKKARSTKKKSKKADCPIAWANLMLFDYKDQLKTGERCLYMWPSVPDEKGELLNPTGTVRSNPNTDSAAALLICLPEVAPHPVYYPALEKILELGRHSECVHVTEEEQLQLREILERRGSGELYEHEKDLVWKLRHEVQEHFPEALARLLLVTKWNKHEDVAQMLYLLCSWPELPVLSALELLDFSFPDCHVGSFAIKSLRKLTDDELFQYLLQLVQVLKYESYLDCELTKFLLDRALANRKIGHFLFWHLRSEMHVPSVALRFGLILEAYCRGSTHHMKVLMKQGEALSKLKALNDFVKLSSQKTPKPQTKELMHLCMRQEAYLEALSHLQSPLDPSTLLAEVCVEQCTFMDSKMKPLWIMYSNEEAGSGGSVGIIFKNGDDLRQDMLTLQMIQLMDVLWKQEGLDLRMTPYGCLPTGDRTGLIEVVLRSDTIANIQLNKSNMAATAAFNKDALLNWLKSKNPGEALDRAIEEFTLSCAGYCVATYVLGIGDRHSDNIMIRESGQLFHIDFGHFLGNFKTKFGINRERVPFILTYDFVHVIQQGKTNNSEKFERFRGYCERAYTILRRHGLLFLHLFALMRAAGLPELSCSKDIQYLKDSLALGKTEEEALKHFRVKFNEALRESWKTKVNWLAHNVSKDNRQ
Sequence of PI3Kδ (P27986 whole entry partner, species assumed): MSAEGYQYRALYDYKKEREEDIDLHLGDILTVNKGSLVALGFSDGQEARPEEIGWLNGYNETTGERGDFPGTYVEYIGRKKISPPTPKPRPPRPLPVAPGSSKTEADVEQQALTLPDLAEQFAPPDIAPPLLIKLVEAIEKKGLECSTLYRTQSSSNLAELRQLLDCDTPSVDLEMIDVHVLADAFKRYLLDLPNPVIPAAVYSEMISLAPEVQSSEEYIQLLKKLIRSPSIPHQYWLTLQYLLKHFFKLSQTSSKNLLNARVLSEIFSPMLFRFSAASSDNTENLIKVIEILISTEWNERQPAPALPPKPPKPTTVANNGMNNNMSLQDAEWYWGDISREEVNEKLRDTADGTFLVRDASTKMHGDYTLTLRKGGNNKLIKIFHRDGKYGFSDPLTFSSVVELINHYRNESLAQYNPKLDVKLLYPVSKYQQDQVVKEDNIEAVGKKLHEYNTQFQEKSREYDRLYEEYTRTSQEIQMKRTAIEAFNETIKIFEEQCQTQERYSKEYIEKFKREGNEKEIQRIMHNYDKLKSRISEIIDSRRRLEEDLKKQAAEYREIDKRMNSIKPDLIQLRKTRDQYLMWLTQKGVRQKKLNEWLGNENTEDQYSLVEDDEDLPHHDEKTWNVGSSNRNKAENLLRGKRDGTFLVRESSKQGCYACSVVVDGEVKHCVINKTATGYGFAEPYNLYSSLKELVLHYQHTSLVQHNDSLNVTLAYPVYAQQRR
Sequence of PI3Kα (P42336 whole entry, species assumed): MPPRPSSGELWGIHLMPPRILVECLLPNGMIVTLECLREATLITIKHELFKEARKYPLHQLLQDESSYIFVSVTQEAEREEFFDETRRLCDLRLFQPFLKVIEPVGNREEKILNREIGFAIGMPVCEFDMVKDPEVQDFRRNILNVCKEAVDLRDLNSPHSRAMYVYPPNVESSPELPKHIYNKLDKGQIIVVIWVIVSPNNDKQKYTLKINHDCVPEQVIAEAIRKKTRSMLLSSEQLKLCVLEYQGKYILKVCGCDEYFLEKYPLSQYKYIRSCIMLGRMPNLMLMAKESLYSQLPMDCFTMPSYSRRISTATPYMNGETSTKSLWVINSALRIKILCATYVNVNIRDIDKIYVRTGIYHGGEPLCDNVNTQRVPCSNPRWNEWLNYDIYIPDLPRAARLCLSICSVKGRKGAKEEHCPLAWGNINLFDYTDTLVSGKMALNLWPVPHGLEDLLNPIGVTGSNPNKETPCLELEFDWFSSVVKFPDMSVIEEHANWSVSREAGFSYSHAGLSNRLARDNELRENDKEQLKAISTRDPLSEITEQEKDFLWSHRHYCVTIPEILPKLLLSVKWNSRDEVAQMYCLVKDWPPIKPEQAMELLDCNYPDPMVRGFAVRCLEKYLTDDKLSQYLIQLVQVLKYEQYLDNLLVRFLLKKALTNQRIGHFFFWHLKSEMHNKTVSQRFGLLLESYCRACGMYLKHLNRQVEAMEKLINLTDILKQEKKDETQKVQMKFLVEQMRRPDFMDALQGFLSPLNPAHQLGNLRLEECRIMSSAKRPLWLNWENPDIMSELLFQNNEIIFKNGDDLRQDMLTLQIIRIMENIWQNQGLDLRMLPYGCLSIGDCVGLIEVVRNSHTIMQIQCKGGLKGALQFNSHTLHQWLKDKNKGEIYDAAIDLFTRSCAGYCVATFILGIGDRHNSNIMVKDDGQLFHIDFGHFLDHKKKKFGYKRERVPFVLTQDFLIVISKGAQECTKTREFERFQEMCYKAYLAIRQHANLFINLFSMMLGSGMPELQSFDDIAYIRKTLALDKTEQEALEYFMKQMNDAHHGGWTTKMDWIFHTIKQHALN
Sequence of PI3Kα (P27986 whole entry partner, species assumed): as the sequence (P27986 whole entry partner, species assumed) above
Sequence of PI3Kβ (P42338 whole entry, species assumed): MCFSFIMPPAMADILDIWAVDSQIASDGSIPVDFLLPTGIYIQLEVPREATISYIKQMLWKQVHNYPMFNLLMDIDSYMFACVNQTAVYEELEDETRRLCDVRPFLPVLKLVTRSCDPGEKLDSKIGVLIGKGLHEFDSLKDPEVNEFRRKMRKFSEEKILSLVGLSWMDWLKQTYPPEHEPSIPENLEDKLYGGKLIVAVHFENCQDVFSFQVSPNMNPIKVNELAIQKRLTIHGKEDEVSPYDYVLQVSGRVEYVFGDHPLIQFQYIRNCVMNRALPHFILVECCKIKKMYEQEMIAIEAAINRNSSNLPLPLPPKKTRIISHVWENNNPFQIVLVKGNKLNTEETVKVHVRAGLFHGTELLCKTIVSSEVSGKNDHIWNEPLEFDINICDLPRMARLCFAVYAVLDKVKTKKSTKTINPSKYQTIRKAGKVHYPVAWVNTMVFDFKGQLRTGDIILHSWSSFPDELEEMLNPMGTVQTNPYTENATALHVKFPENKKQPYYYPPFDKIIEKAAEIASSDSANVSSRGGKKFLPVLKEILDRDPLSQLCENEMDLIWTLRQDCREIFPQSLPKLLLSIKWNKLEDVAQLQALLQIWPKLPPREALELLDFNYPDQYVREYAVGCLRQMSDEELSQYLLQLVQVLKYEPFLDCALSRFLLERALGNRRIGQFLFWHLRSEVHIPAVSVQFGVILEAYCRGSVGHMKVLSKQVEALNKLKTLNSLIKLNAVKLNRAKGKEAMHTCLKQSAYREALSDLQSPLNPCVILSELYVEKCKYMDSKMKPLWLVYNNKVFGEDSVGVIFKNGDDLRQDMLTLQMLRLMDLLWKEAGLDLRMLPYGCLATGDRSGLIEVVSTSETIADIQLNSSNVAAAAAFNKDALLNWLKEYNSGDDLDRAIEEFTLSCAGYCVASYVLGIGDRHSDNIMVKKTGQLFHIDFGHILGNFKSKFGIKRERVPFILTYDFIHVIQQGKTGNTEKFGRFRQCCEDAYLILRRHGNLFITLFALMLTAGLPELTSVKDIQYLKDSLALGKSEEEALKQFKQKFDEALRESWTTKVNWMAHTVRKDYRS
Sequence of PI3Kβ (P27986 whole entry partner, species assumed): as the sequence (P27986 whole entry partner, species assumed) above

For the molecule `COc1ncc(-c2nc(N3CCOCC3)c3sc(CN4CCC(N(C)C(C)C)CC4)c(C)c3n2)cc1NS(C)(=O)=O` [Compound 16], the IC50 (in general, the concentration that inhibits the measured activity by half) in test [1] is 20.1 nM; in test [3], 15 nM. In addition, the “γ/δ (ratio of IC50 values against PI3Kγ to PI3Kδ)” value in test [2] is greater than 650. Further, in test [4], the “β/δ (ratio of IC50 values against PI3Kβ to PI3Kδ)” value amounted to 341. Besides, the “α/δ (ratio of IC50 values against PI3Kα to PI3Kδ)” value in test [5] amounted to 42.

For `COc1ncc(-c2nc(N3CCOCC3)nc3c(CN4CCC(N5CCCCC5=O)CC4)cc(F)cc23)cc1NS(C)(=O)=O` [Compound 23], the IC50 in test [1] was 88.7 nM; in test [3], 16 nM. Moreover, the “γ/δ (ratio of IC50 values against PI3Kγ to PI3Kδ)” value in test [2] is on record as greater than 625. Besides, the “β/δ (ratio of IC50 values against PI3Kβ to PI3Kδ)” value in test [4] was 40. Further, the “α/δ (ratio of IC50 values against PI3Kα to PI3Kδ)” value in test [5] turned out to be 79.

On to `COc1ncc(-c2nc(N3CCOCC3)nc3c(OC4CCC(N5CCCCC5)CC4)cc(F)cc23)cc1NS(C)(=O)=O` (stereo not shown) [Compound 34], for which the IC50 in test [1] was determined as 66 nM; in test [3], 18.2 nM. For the same molecule, the “γ/δ (ratio of IC50 values against PI3Kγ to PI3Kδ)” value in test [2] is greater than 549. Also, in test [4], the “β/δ (ratio of IC50 values against PI3Kβ to PI3Kδ)” value came out at 360. Further, the “α/δ (ratio of IC50 values against PI3Kα to PI3Kδ)” value in test [5] was 202.

Turning to `COc1ncc(-c2nc(N3CCOCC3)nc3c(OC4CCC(N5CCCCC5)CC4)cc(F)cc23)cc1NS(C)(=O)=O` (stereo not shown) [Compound 35], the IC50 was found to be 105 nM in test [1] and 20 nM in test [3]. In addition, in test [2], the “γ/δ (ratio of IC50 values against PI3Kγ to PI3Kδ)” value is on record as greater than 500. In addition, in test [4], the “β/δ (ratio of IC50 values against PI3Kβ to PI3Kδ)” value was found to be 322. Further, the “α/δ (ratio of IC50 values against PI3Kα to PI3Kδ)” value in test [5] was 227.

On to `COc1ncc(-c2nc(N3CCOCC3)nc3c(OC4CCC(N5CCCCC5)CC4)cc(F)cc23)cc1NS(C)(=O)=O` (stereo not shown) [Compound 36], for which the results for the IC50 in test [1] and in test [3] were 27 nM and 17 nM, respectively. Moreover, the “γ/δ (ratio of IC50 values against PI3Kγ to PI3Kδ)” value in test [2] is greater than 588. Further, in test [4], the “β/δ (ratio of IC50 values against PI3Kβ to PI3Kδ)” value was 366. For the same molecule, in test [5], the “α/δ (ratio of IC50 values against PI3Kα to PI3Kδ)” value stood at 239.
